Measured values from article PMC6917776, “Discovery of a chemical probe for PRDM9” (Nature Communications, 2019).
“And” between values parts separate entries of the source, which are not always exact repeats. Equal entries are not always repeated.

What was measured:
[1] = molecular target: T1, PRDM9 (amino acids: 195–415) (Homo sapiens, UniProt Q9NQV7); assay: PRDM9 methyltransferase activity assay (3H-SAM scintillation proximity assay); type: biochemical; details: 100 µM compound
T1 construct: PRDM9 (amino acids: 195–415)
T1 sequence (Q9NQV7 195-415): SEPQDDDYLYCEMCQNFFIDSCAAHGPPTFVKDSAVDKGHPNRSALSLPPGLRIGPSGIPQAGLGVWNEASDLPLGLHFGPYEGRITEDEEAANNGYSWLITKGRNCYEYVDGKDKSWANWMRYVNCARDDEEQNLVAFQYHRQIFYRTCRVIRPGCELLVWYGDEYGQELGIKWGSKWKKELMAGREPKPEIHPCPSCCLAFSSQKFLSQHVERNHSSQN

Opiate µ receptor = molecular target: T2, Opiate µ receptor (Homo sapiens, UniProt P35372); assay: Eurofins Panlabs panel, radioligand binding; details: at 10 µM
T2 construct: Eurofins Panlabs Discovery Services, Taiwan

[2] = test system: panel of 108 enzymes and receptors; assay: Eurofins Panlabs customized panel profiling; type: binding
PRDM9 [3] = molecular target: T3, PRDM9 (Homo sapiens, UniProt Q9NQV7); assay: PRDM9 cellular assay: H3K4me3 of endogenous histone H3 in HEK293T cells (western blot); type: cell-based; details: 20 h, technical replicates
Description: (§1) HEK293T (kind gift from Sam Benchimol, York University), or MCF7 (ATCC® HTB-22™), cells were plated (12 well plates) and next day co-transfected with 0.1 (HEK293T) or 0.2 (MCF7) µg of GFP-tagged histone H3 and with 0.1 (HEK293T) or 0.2 (MCF7) µg of Flag-tagged PRDM9/PRDM9 catalytic mutant (Y357S) and 0.8 or 0.6 µg of empty vector using JetPRIME® transfection reagent, following manufacturer instructions. After 4 h media was removed and cells were treated with compounds for 20 h. Next day, cells were lysed in lysis buffer (20 mM Tris-HCl pH 8, 150 mM NaCl, 1 mM EDTA, 10 mM MgCl2, 0.5% TritonX-100, 12.5 U mL^−1 benzonase (Sigma), complete EDTA-free protease inhibitor cocktail (Roche)). After 2 min incubation at RT, SDS was added to final 1% concentration. Cell lysates were analyzed in western blot for GFP and H3K4me3 levels. All cell lines were mycoplasma negative, as determined by MycoAlert™ Mycoplasma Detection Kit (Lonza).
(§2) Total cell lysates were resolved in 4–12% Bis-Tris Protein Gels (Invitrogen) and transferred in for 1.5 h (80 V) onto PVDF membrane (Millipore) in Tris-Glycine transfer buffer containing 20% MeOH and 0.05% SDS. Blots were blocked for 1 h in blocking buffer (5% milk in PBS) and incubated with primary antibodies anti-GFP (1:3000, Clontech # 632381), anti-H3K4me3 (1:1000, Millipore, #04-745), anti-histone H3 (1:2000, #ab10799, Abcam), anti-Flag (1:5000, #F4799, Sigma) in blocking buffer (5% BSA in 0.1% Tween 20 PBS) overnight at 4 °C. After five washes with 0.1% Tween 20 PBS the blots were incubated with goat-anti rabbit (IR800) and donkey anti-mouse (IR 680) antibodies (1:5000) in Odyssey Blocking Buffer (LiCor) for 1 h at RT and washed five times with 0.1% Tween 20 PBS. The signal was read on an Odyssey scanner (LiCor) at 800 nm and 700 nm and analyzed with Image Studio Ver.5.2 software. […]
endogenous histone H3. (a) Western blot analysis of cellular lysates prepared from HEK293T cells transfected with PRDM9-FLAG and treated with the indicated concentration of compound for 20 h. Mut denotes PRDM9 catalytic mutant (Y357S). (b) Non-linear fit of H3K4me3 fluorescence intensities normalized to intensities of histone H3 is shown. The results are MEAN +/- SEM of n=3 (technical replicates). Source data are provided as a Source Data file .
(§3) (1 picture or pasted object on this page, not shown here)

PRDM9 [4] = molecular target: T3, PRDM9; assay: PRDM9 cellular assay: H3K4me3 of exogenous H3-GFP in MCF7 cells (western blot); type: cell-based; details: for H3K4me3/GFP - western blot: MCF7, 20 h, replicates
Description: as §1, §2
exogenous histone H3 in MCF7 cells. […]
dependent K4 trimethylation of exogenous histone H3 in MCF7 cells. Cells were co-transfected with H3-GFP and PRDM9-FLAG and treated with compounds at indicated concentrations for 20 h. (b) The graph represents non-linear fit of H3K4me3 fluorescence intensities normalized to intensities of GFP. The results are from two independent experiments (n=2). Source data are provided as a Source Data file.
as §3

T3 sequence (Q9NQV7 whole entry): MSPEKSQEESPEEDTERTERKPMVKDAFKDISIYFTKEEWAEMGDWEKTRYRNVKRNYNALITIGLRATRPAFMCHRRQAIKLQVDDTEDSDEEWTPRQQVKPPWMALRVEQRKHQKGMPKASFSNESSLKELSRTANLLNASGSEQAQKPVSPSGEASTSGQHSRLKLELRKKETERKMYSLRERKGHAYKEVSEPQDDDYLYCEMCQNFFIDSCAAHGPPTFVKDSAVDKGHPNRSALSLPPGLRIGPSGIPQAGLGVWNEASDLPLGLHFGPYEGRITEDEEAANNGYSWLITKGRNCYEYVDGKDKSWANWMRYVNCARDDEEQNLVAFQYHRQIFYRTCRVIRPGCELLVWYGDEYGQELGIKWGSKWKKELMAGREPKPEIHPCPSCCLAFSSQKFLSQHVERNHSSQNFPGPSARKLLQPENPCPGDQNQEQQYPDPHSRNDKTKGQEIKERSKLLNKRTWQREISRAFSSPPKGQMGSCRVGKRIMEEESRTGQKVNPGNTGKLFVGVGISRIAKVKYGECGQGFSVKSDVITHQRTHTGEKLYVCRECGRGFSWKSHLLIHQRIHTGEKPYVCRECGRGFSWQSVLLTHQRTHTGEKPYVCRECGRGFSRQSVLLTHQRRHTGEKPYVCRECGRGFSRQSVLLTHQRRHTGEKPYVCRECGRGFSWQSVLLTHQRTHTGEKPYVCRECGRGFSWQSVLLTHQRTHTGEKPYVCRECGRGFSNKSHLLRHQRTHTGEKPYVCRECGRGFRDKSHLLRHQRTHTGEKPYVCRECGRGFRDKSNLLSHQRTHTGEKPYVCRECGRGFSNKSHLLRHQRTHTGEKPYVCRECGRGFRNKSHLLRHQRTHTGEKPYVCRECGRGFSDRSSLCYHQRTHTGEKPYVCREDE
T2 sequence (P35372 whole entry): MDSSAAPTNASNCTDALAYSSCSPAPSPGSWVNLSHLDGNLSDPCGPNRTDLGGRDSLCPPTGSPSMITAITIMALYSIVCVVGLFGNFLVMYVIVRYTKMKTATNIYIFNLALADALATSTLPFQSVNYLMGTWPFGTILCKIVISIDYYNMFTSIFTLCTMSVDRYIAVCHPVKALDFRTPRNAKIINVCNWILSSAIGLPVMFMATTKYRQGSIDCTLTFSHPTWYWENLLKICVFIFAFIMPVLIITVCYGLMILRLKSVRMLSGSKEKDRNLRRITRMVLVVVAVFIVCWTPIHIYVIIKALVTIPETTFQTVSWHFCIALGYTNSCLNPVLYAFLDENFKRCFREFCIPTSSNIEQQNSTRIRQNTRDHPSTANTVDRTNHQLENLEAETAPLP

Structure (SMILES) | PRDM9-Activity %, single experiments [1] | Binding (Opiate µ receptor) [%] | Panel of 108 enzymes and receptors: targets with significant (>50% at 10 µM) binding [2] | H3K4me3/endogenousH3 - western blot (PRDM9 [3]; 0.256 µM) | H3K4me3/endogenousH3 - western blot (PRDM9 [3]; 0.64 µM) | H3K4me3/endogenousH3 - western blot (PRDM9 [3]; 1.6 µM) | H3K4me3/endogenousH3 - western blot (PRDM9 [3]; 4 µM) | H3K4me3/endogenousH3 - western blot (PRDM9 [3]; 10 µM) | H3K4me3/GFP - western blot (PRDM9 [4]; 0.256 µM) | H3K4me3/GFP - western blot (PRDM9 [4]; 0.64 µM) | H3K4me3/GFP - western blot (PRDM9 [4]; 1.6 µM) | H3K4me3/GFP - western blot (PRDM9 [4]; 4 µM) | H3K4me3/GFP - western blot (PRDM9 [4]; 10 µM) | Inhibition of H3K4 methylation in MCF7 cells, compared with HEK293T (in words) (PRDM9 [4]; 20 h)
COc1cc(OC)cc(-c2noc(N3CCN(C)C4(CCN(c5ccccc5)CC4)C3)n2)c1 [MRK-740-NC] | 82.7625% and 75.9398% | – | – | – | – | – | – | – | – | – | – | – | – | –
COc1cc(OC)cc(-c2noc(N3CCN(C)C4(CCN(c5ccnc(C)c5)CC4)C3)n2)c1 [MRK-740] | – | > 50 | binding only to Adrenergic α2B, Histamine H3, Muscarinic M2 and Opiate µ receptors | 93.518 % control and 101.99 % control and 96.0071 % control | 97.4527 % control and 97.7629 % control and 94.1624 % control | 94.826 % control and 91.8208 % control and 93.3575 % control | 91.0956 % control and 84.7178 % control and 90.9069 % control | 88.6856 % control and 79.3861 % control and 84.4562 % control | 72.3313 % control and 76.4161 % control | 45.8788 % control and 51.2576 % control | 25.9658 % control and 41.0483 % control | 12.0678 % control and 16.7081 % control | 8.819 % control and 7.277 % control | equipotent inhibitor of H3K4 methylation
